Source: US7217697B2, “Glucopyranosyloxypyrazole derivative medicinal composition containing the same medicinal use thereof and intermediate therefor” (Kissei Pharmaceutical Co., Ltd., priority 2001, dated 2007)

Key:
human SGLT1 = molecular target: T1, human SGLT1 (Homo sapiens, UniProt P13866); assay: Assay for inhibitory effects on human SGLT1 activity (uptake of methyl-α-D-glucopyranoside); assay type: cell-based; conditions: CS1-5-11D cells (CHO-K1 stably expressing human SGLT1); uptake of 1 mM 14C-labeled α-MG, 37° C., 1 hour
T1 construct: expressed in transfected cells
T1 sequence (P13866 1-664): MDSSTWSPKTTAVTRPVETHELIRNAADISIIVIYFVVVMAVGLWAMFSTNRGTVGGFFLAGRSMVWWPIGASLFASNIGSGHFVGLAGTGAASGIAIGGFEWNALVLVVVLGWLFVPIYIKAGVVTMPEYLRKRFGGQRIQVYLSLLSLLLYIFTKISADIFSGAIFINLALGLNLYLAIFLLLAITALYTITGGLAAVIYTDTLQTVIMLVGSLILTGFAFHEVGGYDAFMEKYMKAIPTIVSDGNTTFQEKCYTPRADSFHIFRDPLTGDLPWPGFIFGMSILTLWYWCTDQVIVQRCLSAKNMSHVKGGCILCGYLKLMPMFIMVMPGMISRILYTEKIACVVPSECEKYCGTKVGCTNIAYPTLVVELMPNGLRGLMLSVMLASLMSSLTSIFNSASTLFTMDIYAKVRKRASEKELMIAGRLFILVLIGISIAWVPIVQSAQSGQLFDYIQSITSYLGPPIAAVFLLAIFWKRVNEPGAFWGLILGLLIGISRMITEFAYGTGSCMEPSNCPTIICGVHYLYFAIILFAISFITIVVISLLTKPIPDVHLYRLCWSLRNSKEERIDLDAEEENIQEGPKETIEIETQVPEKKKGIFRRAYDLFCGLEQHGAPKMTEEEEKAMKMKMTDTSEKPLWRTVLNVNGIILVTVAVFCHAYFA
Protocol: Assay for Inhibitory Effects on Human SGLT1 Activity
1) Cloning and Construction of the Vector Expressing Human SGLT1
The cDNA library was prepared for PCR amplification by reverse transcription from total RNA deprived from human small intestine (Ori gene) using oligo-dT as a primer. Using this cDNA library as a template, the DNA fragment coding 1 to 2005 bp of human SGLT1 (ACCESSION: M24847), which was reported by Hediger et al., was amplified by PCR method and inserted into the multi-cloning site of pcDNA3.1(−) (Invitrogen). The DNA sequence inserted was perfectly matched to the previously reported sequence of human SGLT1.
2) Establishment of Cell Line Stably Expressing Human SGLT1
The expression vector of human SGLT1 was digested by Sca I into a linear DNA. The linear DNA was transfected into CHO-K1 cells by means of lipofection (Effectene Transfection Reagent: QIAGEN). Neomycin resistant cell lines were selected by culture in the medium containing G418 (1 mg/mL, LIFE TECHNOLOGIES), and then the activity against the uptake of methyl-α-D-glucopyranoside was measured by the method described below. […] CS1-5–11D cells were cultured in the presence of G418 at 200 μg/mL.
3) Measurement of the Inhibitory Activity Against the Uptake of methyl-α-D-glucopyranoside (α-MG)
CS1-5-11D cells were seeded into a 96-well culture plate at a density of 3×10^4 cells/well and cultured for 2 days, and were used in the uptake assay. A mixture of non-labeled (Sigma) and ^14C-labeled α-MG (Amersham Pharmcia Biotec) added to the uptake buffer (pH 7.4; containing 140 mM sodium chloride, 2 mM potassium chloride, 1 mM calcium chloride, 1 mM magnesium chloride, 10 mM 2-[4-(2-hydroxyethyl)-1-piperazinyl]ethane sulfonic acid, and 5 mM tris(hydroxymethyl)aminomethane) at the final concentration of 1 mM. A test compound was dissolved in dimethyl sulfoxide, and then appropriately diluted with distilled water. The test compound solution was added to the uptake buffer containing 1 mM α-MG, and designated as a measurement buffer. For the control group, the measurement buffer without any test compound was prepared. For measuring the basal uptake, a basal buffer which contains 140 mM chorine chloride instead of 140 mM sodium chloride was prepared. After removing the culture medium of CS1-5-11D cells, 180 μL of the pre-treatment buffer (the uptake buffer not containing α-MG) was added to each well and incubated at 37° C. for 10 minutes. After repeating the same treatment, the pre-treatment buffer was removed. To each well was added 75 μL of the measurement buffer or the basal buffer was added and incubated at 37° C. for 1 hour. After removing the measurement buffer, cells were washed twice with 180 μL per well of the washing buffer (the basal buffer containing 10 mM non-labeled α-MG). The cells were solubilized by 75 μL per well of 0.2 mol/L sodium hydroxide. The cell lysates were transferred into PicoPlates (Packard), and then added 150 μL of MicroScint-40 (Packard) and mixed. Radioactivity was measured by means of micro-scintillation counter TopCount (Packard). One hundred % was set to the difference between the uptake in the control group and the basal uptake, and the uptake of methyl α-D-glucopyranoside at each drug concentration were calculated. The drug concentration, at which 50% uptake of methyl α-D-glucopyranoside was inhibited (IC50 value), was calculated using logit plot.

Male C57BL/6J mice = assay: Acute toxicity test; assay type: in vivo; conditions: n=5, oral 1 g/kg, observed for 48 hours
Protocol: Male C57BL/6J mice (CLEA Japan, Inc.; 17 weeks old, 20–23 g, n=5) were fasted for 4 hours.

diabetic rats = assay: Assay for inhibitory effects on blood glucose level increase in rats (liquid meal tolerance test); assay type: in vivo; conditions: diabetic rats (nicotinamide/streptozotocin), 10 mg/kg orally, liquid meal 15 kcal/kg, mean±S.E.
Protocol: Assay for Inhibitory Effects on Blood Glucose Level Increase in Rats
1) Preparation of Diabetic Rat Model
Ten weeks old rats were injected nicotinamide (230 mg/kg) intraperitoneally. Fifteen minutes after injection, they were injected streptozotocin (65 mg/kg) intravenously from tail vain under anesthesia with ether. Two weeks later, rats were fasted for 5 hours and then oral glucose tolerance test (2 g/kg) was done.
2) Liquid Meal Tolerance Test
After 16 hours fasted, the diabetic rats were orally administered a test compound (10 mg/kg), which was suspended with 0.5% sodium carboxymethylcellulose (CMC), in the drug-treating group, or 0.5% sodium carboxymethylcellulose (CMC) alone in a control group. Immediately after the compound administration, 15 kcal/kg of liquid meal (No. 038, Conrol diet, assorted with dextrin and maltose; Oriental Yeast Co., Ltd.) was loaded orally. The blood was collected from tail artery immediately before (0 h), at 0.5 and 1 hour after administration, and treated with heparin immediately. The blood was centrifuged, and the plasma was collected to quantify the plasma glucose concentration. The values in the table are presented as the mean±S.E.

## CC(C)c1[nH]nc(O[C@@H]2O[C@H](CO)[C@@H](O)[C@H](O)[C@H]2O)c1Cc1ccccc1OCc1cccc(O)c1 [Example 12, 3-(β-D-Glucopyranosyloxy)-4-[2-(3-hydroxybenzyloxy)benzyl]-5-isopropyl-1H-pyrazole]
Human SGLT1
  IC50: 35 nM

## CC(C)c1[nH]nc(O[C@@H]2O[C@H](CO)[C@@H](O)[C@H](O)[C@H]2O)c1Cc1ccccc1OC1CCCCCC1 [Example 51, 4-(2-Cycloheptyloxybenzyl)-3-(β-D-glucopyranosyloxy)-5-isopropyl-1H-pyrazole]
Human SGLT1
  IC50: 194 nM

## CC(C)c1[nH]nc(O[C@@H]2O[C@H](CO)[C@@H](O)[C@H](O)[C@H]2O)c1Cc1ccccc1OCc1ccccc1 [Example 2, 4-(2-Benzyloxybenzyl)-3-(β-D-glucopyranosyloxy)-5-isopropyl-1H-pyrazole]
Human SGLT1
  IC50: 18 nM
Male C57BL/6J mice
  Number of death: 0/5
Diabetic rats; 0 h (pretreatment)
  Plasma glucose concentration: 126 ± 7 mg/dL
Diabetic rats; 0.5 h after administration
  Plasma glucose concentration: 194 ± 7 mg/dL
Diabetic rats; 1 h after administration
  Plasma glucose concentration: 219 ± 16 mg/dL

## CC(C)c1c(Cc2ccccc2OCc2ccccc2)c(O[C@@H]2O[C@H](CO)[C@@H](O)[C@H](O)[C@H]2O)nn1CCO [Example 9, 4-(2-Benzyloxybenzyl)-3-(β-D-glucopyranosyloxy)-1-(2-hydroxyethyl)-5-isopropyl-1H-pyrazole]
Human SGLT1
  IC50: 8 nM

## OCCCn1nc(O[C@@H]2O[C@H](CO)[C@@H](O)[C@H](O)[C@H]2O)c(Cc2ccccc2OCc2ccccc2)c1C(F)(F)F [Example 13, 4-(2-Benzyloxybenzyl)-3-(β-D-glucopyranosyloxy)-1-(3-hydroxypropyl)-5-trifluoromethyl-1H-pyrazole]
Human SGLT1
  IC50: 30 nM

## OCCn1nc(O[C@@H]2O[C@H](CO)[C@@H](O)[C@H](O)[C@H]2O)c(Cc2ccccc2OCc2ccccc2)c1C(F)(F)F [Example 11, 4-(2-Benzyloxybenzyl)-3-(β-D-glucopyranosyloxy)-1-(2-hydroxyethyl)-5-trifluoromethyl-1H-pyrazole]
Human SGLT1
  IC50: 13 nM

## OC[C@H]1O[C@@H](Oc2n[nH]c(C(F)(F)F)c2Cc2ccccc2OCc2ccccc2)[C@H](O)[C@@H](O)[C@@H]1O [Example 21, 4-(2-Benzyloxybenzyl)-3-(β-D-glucopyranosyloxy)-5-trifluoromethyl-1H-pyrazole]
Human SGLT1
  IC50: 14 nM

## CC(C)c1[nH]nc(O[C@@H]2O[C@H](CO)[C@@H](O)[C@H](O)[C@H]2O)c1Cc1ccccc1OCc1cccc(Cl)c1 [Example 15, 4-[2-(3-Chlorobenzyloxy)benzyl]-3-(β-D-glucopyranosyloxy)-5-isopropyl-1H-pyrazole]
Human SGLT1
  IC50: 1 nM

## CCc1c(Cc2ccccc2OCc2ccccc2)c(O[C@@H]2O[C@H](CO)[C@@H](O)[C@H](O)[C@H]2O)nn1CCO [Example 19, 4-(2-Benzyloxybenzyl)-5-ethyl-3-(β-D-glucopyranosyloxy)-1-(2-hydroxyethyl)-1H-pyrazole]
Human SGLT1
  IC50: 80 nM
